Data on 20 compounds can be found in PubChem BioAssay (NCI).

Test systems include KM12 colon; A498 renal; UO-31 renal; SNB-75 CNS; HOP-62 NSCLC; K-562 leukemia; OVCAR-4 ovarian; PC-3 prostate; UACC-257 melanoma; SK-MEL-5 melanoma.
What all share (experiment): growth of human tumour cells (NCI), 48 h

Several values for one entry are separate records, joined by “and”; a condition that tells them apart may be missing. Equal values may be shown once.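 All cell lines were grown in 96-well plates and treated with compound for 48 hours. The concentration for 50% growth inhibition is given as GI50. TGI denotes the concentration required for complete inhibition of growth.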

Take `C=CCOC1=C(OC(C)=O)C(C2COC(C)(C)O2)OC1=O` (centres undefined): the TGI was 44.3 µM with KM12 colon; greater than 100 µM with A498 renal; 33 µM with UO-31 renal; greater than 100 µM in the test with SNB-75 CNS; greater than 100 µM with HOP-62 NSCLC; 35.9 µM with K-562 leukemia. For the same compound, the TGI with OVCAR-4 ovarian was 45.9 µM; in the test with PC-3 prostate, greater than 100 µM; with UACC-257 melanoma, 39.7 µM; in the test with SK-MEL-5 melanoma, 33.6 µM.
Turning to `Oc1ccccc1/C=N/N1C(=S)N(c2ccccc2)C(=Nc2ccccc2)C1=Nc1ccccc1`, the TGI with KM12 colon is greater than 100 µM; with A498 renal, 17.2 µM; in the test with UO-31 renal, 33.1 µM; in the test with SNB-75 CNS, 11.4 µM; in the test with HOP-62 NSCLC, 22.6 µM; in the test on K-562 leukemia it was greater than 64.7 µM. Moreover, the TGI in the test with OVCAR-4 ovarian was 15.2 µM; in the test on PC-3 prostate, 47.2 µM; with UACC-257 melanoma, greater than 68 µM; with SK-MEL-5 melanoma it was 40.9 µM.
On to `O=[N+]([O-])C(=C(\Cl)NCCO)/C(Cl)=C(/Cl)Br`, for which the TGI with KM12 colon was 17.6 µM; in the test with A498 renal it was 12 µM; in the test with UO-31 renal, 10.6 µM; in the test on SNB-75 CNS, 9.08 µM; in the test with HOP-62 NSCLC, 29 µM; in the test with K-562 leukemia, 2.97 µM. In addition, the TGI was determined as 3.01 µM in the test on OVCAR-4 ovarian, 7.68 µM in the test on PC-3 prostate, 4.4 µM in the test with UACC-257 melanoma and 7.3 µM in the test with SK-MEL-5 melanoma.
Regarding `O=C(Nc1ccccn1)c1cc2c(cc1Cl)Sc1nccn1S2(=O)=O`, the TGI in the test on KM12 colon was greater than 100 µM; in the test on A498 renal, greater than 100 µM; in the test with UO-31 renal it was 94.9 µM; in the test with SNB-75 CNS, greater than 100 µM; in the test with HOP-62 NSCLC, greater than 100 µM; in the test on K-562 leukemia, greater than 100 µM. Also, the TGI in the test with OVCAR-4 ovarian is greater than 100 µM; in the test with PC-3 prostate it was greater than 100 µM; in the test on UACC-257 melanoma it was greater than 100 µM; in the test with SK-MEL-5 melanoma, 67.6 µM.
With `COC(=O)CC(c1ccccc1)C(C#N)(OP1(=O)OC(c2ccccc2)C(C)N1C)c1ccccc1` (centres undefined), the TGI in the test with KM12 colon, with A498 renal, in the test on UO-31 renal, with SNB-75 CNS, in the test with HOP-62 NSCLC and in the test on K-562 leukemia was greater than 100 µM in each case. Also, the TGI is greater than 100 µM in the test on OVCAR-4 ovarian, greater than 100 µM in the test with PC-3 prostate, greater than 100 µM with UACC-257 melanoma and 39.8 µM in the test with SK-MEL-5 melanoma.
For the compound `CC1=NN(c2cccc(S(=O)(=O)O)c2)C2(C1)SCC(=O)N2c1nc2ccccc2s1` (centres undefined), the TGI in the test on KM12 colon, in the test with A498 renal, in the test on UO-31 renal, in the test on SNB-75 CNS, with HOP-62 NSCLC and in the test with K-562 leukemia was greater than 100 µM in each case. Moreover, the TGI in the test with OVCAR-4 ovarian, in the test with PC-3 prostate, with UACC-257 melanoma and with SK-MEL-5 melanoma was greater than 100 µM in each case.
With `O=C1C=C(NCCc2ccc(O)cc2)C(=O)C=C1NCCc1ccc(O)cc1`, the TGI was greater than 100 µM with KM12 colon; greater than 100 µM in the test with A498 renal; greater than 100 µM in the test on UO-31 renal; 47.5 µM in the test with SNB-75 CNS; greater than 100 µM in the test on HOP-62 NSCLC; greater than 100 µM in the test with K-562 leukemia. In addition, the TGI with OVCAR-4 ovarian, in the test with PC-3 prostate, with UACC-257 melanoma and in the test on SK-MEL-5 melanoma was greater than 100 µM each time.
On to `Cc1cccc2c1CC1(Cc3c(C)cccc3C1=O)C2=O`, for which the TGI in the test on A498 renal, in the test on UO-31 renal, in the test with SNB-75 CNS, in the test on HOP-62 NSCLC, in the test on K-562 leukemia and in the test with OVCAR-4 ovarian was greater than 100 µM each time. Besides, the TGI in the test on PC-3 prostate, in the test with UACC-257 melanoma and in the test with SK-MEL-5 melanoma was greater than 100 µM throughout.
Turning to `NCCCCNCCCNC(=O)c1csc(-c2nc(CCN)sc2Cl)n1`, the TGI with KM12 colon, in the test on A498 renal, in the test on UO-31 renal, in the test on SNB-75 CNS, with HOP-62 NSCLC and in the test with K-562 leukemia was greater than 100 µM in each case. Further, the TGI in the test with PC-3 prostate, with UACC-257 melanoma and with SK-MEL-5 melanoma was greater than 100 µM in each case.
In the case of `CCOC1=NC(C(F)(F)F)(C(F)(F)F)N=C(/N=C(/N)N(C)C(C(C)C)P(=O)(OC(C)C)OC(C)C)O1` (centres undefined), the TGI with KM12 colon, in the test on A498 renal, in the test on UO-31 renal, in the test with SNB-75 CNS, in the test on HOP-62 NSCLC and in the test on K-562 leukemia was greater than 100 µM throughout. Also, the TGI with PC-3 prostate, in the test with UACC-257 melanoma and in the test with SK-MEL-5 melanoma was greater than 100 µM throughout.
On to `Nc1nc(=O)n(C2CC(O)C(CO)O2)c2nc(-c3ccc(-c4ccccc4)cc3)cnc12` (centres undefined), for which the TGI with A498 renal was greater than 100 µM; in the test with UO-31 renal, greater than 100 µM; in the test with SNB-75 CNS, 66.8 µM; in the test on HOP-62 NSCLC it was 82.9 µM; in the test with K-562 leukemia, greater than 100 µM; in the test on OVCAR-4 ovarian, greater than 100 µM. The TGI in the test with PC-3 prostate, with UACC-257 melanoma and with SK-MEL-5 melanoma was greater than 100 µM each time.
For the compound `Cc1csc(CP(=O)(OC(C)C)OC(C)C)n1`, the TGI in the test on A498 renal, with UO-31 renal, with SNB-75 CNS, in the test with HOP-62 NSCLC, in the test on K-562 leukemia and in the test on OVCAR-4 ovarian was greater than 100 µM in each case. Also, the TGI in the test on PC-3 prostate, with UACC-257 melanoma and in the test with SK-MEL-5 melanoma was greater than 100 µM throughout.
With `COc1ccc(-c2c(C#N)c(N)n(C3OC(COC(C)=O)C(OC(C)=O)C(OC(C)=O)C3OC(C)=O)c(=S)c2C#N)cc1` (centres undefined), the GI50 in the test on KM12 colon was > 100 µM and 36.8 µM; with UO-31 renal, 42.4 µM and 16.7 µM. The TGI in the test on KM12 colon is greater than 100 µM; in the test with A498 renal it was 91.4 µM and 63.5 µM; with UO-31 renal, > 100 µM and 38.9 µM; in the test with SNB-75 CNS, 63.4 µM and 50.9 µM; with HOP-62 NSCLC, 89.1 µM and 51.6 µM; with OVCAR-4 ovarian, > 100 µM and 55.6 µM. The TGI with PC-3 prostate is greater than 100 µM; in the test on UACC-257 melanoma, > 100 µM and 44.5 µM; in the test on SK-MEL-5 melanoma, > 100 µM and 56.4 µM.
In the case of `O=C1CCCC1C(O)(C(F)(F)Cl)C(F)(F)Cl` (centres undefined), the TGI in the test with KM12 colon, with A498 renal, in the test with SNB-75 CNS, in the test with HOP-62 NSCLC, in the test on K-562 leukemia and in the test on OVCAR-4 ovarian was greater than 10 µM each time. Also, the TGI in the test with PC-3 prostate, with UACC-257 melanoma and in the test with SK-MEL-5 melanoma was greater than 10 µM in each case.
Turning to `Cc1ccc(S(=O)(=O)N/N=C2/C3CC4CCC2C4C3)cc1` (centres undefined), the TGI in the test with KM12 colon, in the test on A498 renal, with UO-31 renal, in the test with SNB-75 CNS, with HOP-62 NSCLC and with OVCAR-4 ovarian was greater than 100 µM each time. For the same compound, the TGI in the test with PC-3 prostate, in the test with UACC-257 melanoma and in the test with SK-MEL-5 melanoma was greater than 100 µM in each case.
Turning to `COc1ccc(OC)c2c1-c1nnnn1CCC2(C)C`, the TGI in the test on KM12 colon, in the test with A498 renal, with UO-31 renal, in the test on SNB-75 CNS, in the test on HOP-62 NSCLC and in the test on K-562 leukemia was greater than 100 µM throughout. Also, the TGI in the test on OVCAR-4 ovarian, in the test on PC-3 prostate and in the test on UACC-257 melanoma was greater than 100 µM each time.
With `CSc1c(C#N)c(=O)n(N)c2n[nH]c(C)c12`, the TGI with KM12 colon, in the test on A498 renal, in the test with UO-31 renal, in the test with SNB-75 CNS, in the test on K-562 leukemia and in the test with OVCAR-4 ovarian was greater than 100 µM throughout. Further, the TGI in the test on PC-3 prostate, with UACC-257 melanoma and in the test with SK-MEL-5 melanoma was greater than 100 µM each time.
With `O=C1CSC2(CC(/C=C/c3ccccc3[N+](=O)[O-])=NN2c2cccc(S(=O)(=O)O)c2)N1c1nc2ccccc2s1` (centres undefined), the TGI amounted to 27 µM with KM12 colon; 38.7 µM in the test with A498 renal; 25.1 µM in the test with UO-31 renal; 28.8 µM in the test on SNB-75 CNS; 63.3 µM in the test with K-562 leukemia; 35.3 µM with OVCAR-4 ovarian. The TGI is 35.4 µM in the test with PC-3 prostate, greater than 75 µM with UACC-257 melanoma and greater than 75 µM in the test on SK-MEL-5 melanoma.
Consider `O=C(CN1CCOCC1)c1ccc2c(c1)oc(=O)n2CCN1CCCCC1`, for which the TGI was greater than 100 µM with KM12 colon; greater than 100 µM with A498 renal; greater than 100 µM in the test on UO-31 renal; 56.2 µM in the test with SNB-75 CNS; greater than 100 µM with HOP-62 NSCLC; greater than 100 µM in the test on K-562 leukemia. In addition, the TGI with PC-3 prostate, in the test on UACC-257 melanoma and with SK-MEL-5 melanoma was greater than 100 µM throughout.
On to `C=C(C)[C@H]1C=C[C@@H](OC(C)=O)[C@@]2(COC(C)=O)[C@H](OC(=O)CCC)[C@H]3[C@@H](OC(C)=O)[C@@H](C)C[C@]3(O)C(=O)[C@@](C)(OC(C)=O)[C@H]12`, for which the TGI with KM12 colon, in the test with A498 renal, in the test with UO-31 renal, with SNB-75 CNS, in the test on K-562 leukemia and in the test on OVCAR-4 ovarian was greater than 100 µM in each case. Also, the TGI with PC-3 prostate, with UACC-257 melanoma and in the test on SK-MEL-5 melanoma was greater than 100 µM in each case.
